{"source": "patent US8039466B2", "about": "“5-hydroxymethyl-oxazolidin-2-one antibacterials” (Actelion Pharmaceutical Ltd., priority 2006, dated 2011)", "experiment_in_all_cases": "MIC by microdilution in cation-adjusted Mueller-Hinton Broth (NCCLS)", "assay_type_in_all_cases": "cell-based", "key": {"[1]": {"tested_on": "M. catarrhalis A894", "conditions": "Moraxella catarrhalis, pH of test medium 7.2-7.3", "protocol": "(§1) These assays have been performed following the description given in “Methods for dilution Antimicrobial Susceptibility Tests for Bacteria that Grow Aerobically, 4th ed.; Approved standard: NCCLS Document M7-A4; National Committee for Clinical Laboratory Standards Villanova, Pa., USA, 1997”. Minimal inhibitory concentrations (MICs; mg/l) were determined in cation-adjusted Mueller-Hinton Broth (BBL) by a microdilution method following NCCLS guidelines (National Committee for Clinical Laboratory Standards. Methods for Dilution Antimicrobial Susceptibility). The pH of the test medium was 7.2-7.3. All the above Examples were tested against several Gram positive and Gram negative bacteria."}, "[2]": {"tested_on": "S. Pneumoniae 49619", "conditions": "Streptococcus pneumoniae", "protocol": "as §1"}, "[3]": {"tested_on": "S. aureus A798", "conditions": "Staphylococcus aureus", "protocol": "as §1"}, "[4]": {"conditions": "pH of test medium 7.2-7.3, read-out: MIC S. Pneumoniae 49619"}, "[5]": {"conditions": "A798, pH of test medium 7.2-7.3, read-out: MIC S. aureus A798"}}, "note": "Where two headings read alike, the source gives them in different places."}
{"molecule": "O=C(O)c1cn(C2CC2)c2c3c(c(F)cc2c1=O)N1CCC(O)(COc2ccc(N4C[C@H](CO)OC4=O)cc2F)C[C@H]1CO3", "note": "(mixture of isomers) [Example 6, (6aS,8RS)-4-cyclopropyl-11-fluoro-8-[2-fluoro-4-((R)-5-hydroxymethyl-2-oxo-oxazolidin-3-yl)-phenoxymethyl]-8-hydroxy-1-oxo-1,4,6,6a,7,8,9,10-octahydro-5-oxa-4,10a-diaza-chrysene-2-carboxylic acid]", "values": [{"measurement": "MIC", "setting": "[1]", "result": 0.5, "unit": "µg/mL"}, {"measurement": "MIC", "setting": "[2]; [4]", "result": 0.25, "unit": "µg/mL"}, {"measurement": "MIC", "setting": "[3]; [5]", "result": 0.5, "unit": "µg/mL"}]}
{"molecule": "O=C(O)c1cn(C2CC2)c2c3c(c(F)cc2c1=O)N1CCC(O)(COc2ccc(N4C[C@H](CO)OC4=O)cc2F)C[C@@H]1CO3", "note": "(mixture of isomers) [Example 7, (6aR,8RS)-4-cyclopropyl-11-fluoro-8-[2-fluoro-4-((R)-5-hydroxymethyl-2-oxo-oxazolidin-3-yl)-phenoxymethyl]-8-hydroxy-1-oxo-1,4,6,6a,7,8,9,10-octahydro-5-oxa-4,10a-diaza-chrysene-2-carboxylic acid]", "values": [{"measurement": "MIC", "setting": "[2]; [4]", "result": 0.25, "unit": "µg/mL"}]}
{"molecule": "O=C(O)c1cn(C2CC2)c2c3c(c(F)cc2c1=O)N1C[C@](O)(COc2ccc(N4C[C@H](CO)OC4=O)cc2F)C[C@H]1CO3", "note": "[Example 1, (13S,16S)-1-cyclopropyl-7-fluoro-16-[2-fluoro-4-((R)-5-hydroxymethyl-2-oxo-oxazolidin-3-yl)-phenoxymethyl]-16-hydroxy-4-oxo-1,4,13,15,16,17-hexahydro-12H-11-oxa-1,14-diaza-cyclopenta[a]phenanthrene-3-carboxylic acid]", "values": [{"measurement": "MIC", "setting": "[2]; [4]", "result": "≤ 0.063", "unit": "µg/mL"}]}
{"molecule": "C[C@@H](N)C(=O)OC[C@H]1CN(c2ccc(OC[C@]3(O)C[C@H]4COc5c(c(F)cc6c(=O)c(C(=O)O)cn(C7CC7)c56)N4C3)c(F)c2)C(=O)O1", "note": "[Example 2, (13S,16S)-16-{4-[(R)-5-((R)-2-amino-propionyloxymethyl)-2-oxo-oxazolidin-3-yl]-2-fluoro-phenoxymethyl}-1-cyclopropyl-7-fluoro-16-hydroxy-4-oxo-1,4,13,15,16,17-hexahydro-12H-11-oxa-1,14-diaza-cyclopenta[a]phenanthrene-3-carboxylic acid]", "values": [{"measurement": "MIC", "setting": "[2]; [4]", "result": 0.125, "unit": "µg/mL"}]}
{"molecule": "CCn1cc(C(=O)O)c(=O)c2cc(F)c3c(c21)OC[C@@H]1C[C@@](O)(COc2ccc(N4C[C@H](CO)OC4=O)cc2F)CN31", "note": "[Example 3, (13S,16S)-1-ethyl-7-fluoro-16-[2-fluoro-4-((R)-5-hydroxymethyl-2-oxo-oxazolidin-3-yl)-phenoxymethyl]-16-hydroxy-4-oxo-1,4,13,15,16,17-hexahydro-12H-11-oxa-1,14-diaza-cyclopenta[a]phenanthrene-3-carboxylic acid]", "values": [{"measurement": "MIC", "setting": "[1]", "result": 0.125, "unit": "µg/mL"}, {"measurement": "MIC", "setting": "[2]; [4]", "result": 0.25, "unit": "µg/mL"}, {"measurement": "MIC", "setting": "[3]; [5]", "result": 0.5, "unit": "µg/mL"}]}
{"molecule": "O=C(O)c1cn(C2CC2)c2c3c(c(F)cc2c1=O)N1C[C@H](COc2ccc(N4C[C@H](CO)OC4=O)cc2F)C[C@H]1CO3", "note": "[Example 4, (13S,16R)-1-cyclopropyl-7-fluoro-16-[2-fluoro-4-((R)-5-hydroxymethyl-2-oxo-oxazolidin-3-yl)-phenoxymethyl]-4-oxo-1,4,13,15,16,17-hexahydro-12H-11-oxa-1,14-diaza-cyclopenta[a]phenanthrene-3-carboxylic acid]", "values": [{"measurement": "MIC", "setting": "[2]; [4]", "result": 0.25, "unit": "µg/mL"}]}
{"molecule": "O=C(O)c1cn(C2CC2)c2c3c(c(F)cc2c1=O)N1C[C@@H](COc2ccc(N4C[C@H](CO)OC4=O)cc2F)C[C@H]1CO3", "note": "[Example 5, (13S,16S)-1-cyclopropyl-7-fluoro-16-[2-fluoro-4-((R)-5-hydroxymethyl-2-oxo-oxazolidin-3-yl)-phenoxymethyl]-4-oxo-1,4,13,15,16,17-hexahydro-12H-11-oxa-1,14-diaza-cyclopenta[a]phenanthrene-3-carboxylic acid]", "values": [{"measurement": "MIC", "setting": "[2]; [4]", "result": 0.25, "unit": "µg/mL"}]}
{"molecule": "O=C(O)c1cn(C2CC2)c2c3c(c(F)cc2c1=O)N1C[C@@](COc2ccc(N4C[C@H](CO)OC4=O)cc2F)(OP(=O)(O)O)C[C@H]1CO3", "note": "[Example 8, (13S,16S)-1-cyclopropyl-7-fluoro-16-[2-fluoro-4-((R)-5-hydroxymethyl-2-oxo-oxazolidin-3-yl)-phenoxymethyl]-4-oxo-16-phosphonooxy-1,4,13,15,16,17-hexahydro-12H-11-oxa-1,14-diaza-cyclopenta[a]phenanthrene-3-carboxylic acid]", "values": [{"measurement": "MIC", "setting": "[3]; A798, in the presence of human alkaline phosphatase, read-out: MIC against S. aureus A798", "result": 0.25, "unit": "µg/mL"}, {"measurement": "MIC", "setting": "[3]; A798, phosphatase absent, read-out: MIC against S. aureus A798", "result": 4, "unit": "µg/mL"}]}
{"molecule": "O=C(O)c1c[nH]c2c3c(c(F)cc2c1=O)N1C[C@](O)(COc2ccc(N4C[C@H](CO)OC4=O)cc2F)C[C@H]1CO3", "note": "[Example 9, (13S,16S)-7-fluoro-16-[2-fluoro-4-((R)-5-hydroxymethyl-2-oxo-oxazolidin-3-yl)-phenoxymethyl]-16-hydroxy-4-oxo-1,4,13,15,16,17-hexahydro-12H-11-oxa-1,14-diaza-cyclopenta[a]phenanthrene-3-carboxylic acid]", "values": [{"measurement": "MIC", "setting": "[2]; [4]", "result": 0.25, "unit": "µg/mL"}]}
{"molecule": "C[C@H](N)C(=O)OC[C@H]1CN(c2ccc(OC[C@]3(O)C[C@H]4COc5c(c(F)cc6c(=O)c(C(=O)O)cn(C7CC7)c56)N4C3)c(F)c2)C(=O)O1.Cl", "note": "[Example 11, (13S,16S)-16-{4-[(R)-5-((S)-2-amino-propionyloxymethyl)-2-oxo-oxazolidin-3-yl]-2-fluoro-phenoxymethyl}-1-cyclopropyl-7-fluoro-16-hydroxy-4-oxo-1,4,13,15,16,17-hexahydro-12H-11-oxa-1,14-diaza-cyclopenta[a]phenanthrene-3-carboxylic acid hydrochloride]", "values": [{"measurement": "MIC", "setting": "[2]; in the absence of human serum, read-out: MIC against S. Pneumoniae 49619", "result": "≤ 0.063", "unit": "µg/mL"}]}
{"molecule": "O=C(O)c1cn(C2CC2)c2c3c(c(F)cc2c1=O)N1C[C@](O)(COc2ccc(N4C[C@H](COC(=O)C5CCNCC5)OC4=O)cc2F)C[C@H]1CO3", "note": "[Example 12, (13S,16S)-1-cyclopropyl-7-fluoro-16-{2-fluoro-4-[(R)-2-oxo-5-(piperidine-4-carbonyloxymethyl)-oxazolidin-3-yl]-phenoxymethyl}-16-hydroxy-4-oxo-1,4,13,15,16,17-hexahydro-12H-11-oxa-1,14-diaza-cyclopenta[a]phenanthrene-3-carboxylic acid]", "values": [{"measurement": "MIC", "setting": "[3]; A798, human serum absent, read-out: MIC against S. aureus A798", "result": 8, "unit": "µg/mL"}, {"measurement": "MIC", "setting": "[3]; A798, in the presence of human serum, read-out: MIC against S. aureus A798", "result": 2, "unit": "µg/mL"}]}
